Reference: paper PMC3500254, “Potent Inhibition of Late Stages of Hepadnavirus Replication by a Modified Cell Penetrating Peptide” (PLoS ONE, 2012)

Assays:
[1] = test system: Duck Hepatitis B Virus (DHBV); assay: Intracellular viral RNA and DNA replicative forms in LMH-D2 cells (Northern and Southern blot); type: cell-based; conditions: 5 days, Deca-(Arg)8 at 2 µM, 3-TC as control, Northern blot normalized on GAPDH RNA
Description: (§1) To determine whether the decrease in DHBV secretion is caused by an inhibition of virus replication, LMH-D2 cells and PDHs were treated with different concentration of Deca-(Arg)8 followed by quantification of viral RNA and intracellular DNA replication intermediates by Northern and Southern blot, respectively. As a control, cells were treated by 3-TC, which is a specific inhibitor of the DHBV polymerase, [33]. […] An unspecific effect on transcription can be excluded as mRNA synthesis in transfected LMH-D2 cells was not impaired.
(§2) Figure 4 Effect of Deca-(Arg)8 on the intracellular hepadnavirus intermediate replicative forms. Infected PDH (A), and stably DHBV-transfected LMH-D2 (B) cells were treated with different amounts of Deca-(Arg)8 ranking from 0.5 µM to 2 µM for 5 days. At the end of treatment, the cells were harvested and lysed for DNA and RNA extraction. […] For the Northern blot the level of DHBV RNA was normalized on the GAPDH RNA amount. […] Bands corresponding to the expected size of relaxed circular (RC), linear (L), single-stranded (SS) and covalently closed circular (ccc) DHBV DNA are indicated. […]
(§3) Cells supernatants were harvested daily, spotted onto positively charged nylon membrane and extracellular DHBV DNA was detected in supernatant of cells by dot blot hybridization assay using a full-length ^32P-labelled DHBV probe as described previously. […]

[2] = test system: Duck Hepatitis B Virus (DHBV); assay: Intracellular viral RNA and DNA replicative forms in infected PDH (Northern and Southern blot); type: cell-based; conditions: 5 days, 3-TC as control
Description: as §1, §2, §3

## Nc1ccn([C@@H]2CS[C@H](CO)O2)c(=O)n1 [3-TC, Lamivudine]
[1]
  viral RNA levels: not impaired
[2]; PDH, Deca-(Arg)8 at 2 µM, Northern blot normalized on GAPDH RNA
  viral RNA levels: reduction of viral mRNA synthesis
[2]; infected PDH, Deca-(Arg)8 0.5 µM to 2 µM, Southern blot
  cccDNA: prevented cccDNA formation
